From patent publication US20220257581A1, “Treatment of Cancer” (Sumitomo Dainippon Pharma Oncology, Inc., priority 2019, published 2022)

Key:
[1] = system: patients with newly diagnosed, previously untreated AML
Experimental: Treatment Plan: Induction. Alvocidib was dose-escalated starting at dose level 1: 20 mg/m^2 30-minute IV bolus followed by 30 mg/m^2 IV infusion over 4 hours on Days 1-3 (FIG. 1). Daunorubicin 60 mg/m^2 IV bolus over 15 minutes was initiated on days 5-7, and cytarabine 100 mg/m^2/day IV continuous 24-hour infusion was administered on Days 5-11. A bone marrow aspirate and biopsy was performed on day 14 (+/−3 days) and patients with residual leukemia (>5% bone marrow blasts and >10% cellularity) were recommended to receive a second induction cycle with alvocidib on days 1-3 (same dose level as induction) followed by daunorubicin 45 mg/m^2/day IV over 15 minutes on days 5 and 6 and cytarabine 100 mg/m^2/day IV continuous infusion over days 5-9 (“5+2”).
Statistical Analysis. Alvocidib dose was escalated using a 3+3 design (FIG. 1). Successive cohorts of patients (3-6 per cohort) were treated with escalated doses until the maximal tolerated dose (MTD) was established. Intra-patient dose escalation was not permitted. Descriptive analysis was performed for the safety and efficacy endpoints. MTD for alvocidib was estimated by the highest alvocidib dose for which the incidence of DLT during Cycle 1 was less than 33% in combination with 7+3. Kaplan-Meier time-to-event analyses were performed on overall survival (OS), relapse-free survival and duration of remission. […]

[2] = system: patients with newly diagnosed, previously untreated AML; assay: Phase 1 dose-escalation study of alvocidib followed by 7+3: response assessments (ELN Guidelines); assay type: in vivo, human; conditions: for Overall CR, n (%): Response Evaluable Population
Experimental: Methods: Study Population. This was a Phase 1, open-label, multicenter, dose-escalation study of alvocidib followed by cytarabine/daunorubicin (7+3) in patients with AML (NCT03298984). Patients aged 18-65 years with newly diagnosed, previously untreated AML and pathological confirmation of bone marrow (BM) blasts 20% were eligible. Key inclusion criteria included: Eastern Cooperative Oncology Group (ECOG) performance status (PS)≤2, serum creatinine level <1.8 mg/dL, alanine aminotransferase (ALT) and aspartate aminotransferase (AST)<5 times upper limit of normal (ULN), total bilirubin <2.0 mg/dL, and left ventricular ejection fraction (EF) >45%. Patients were excluded if they had previous treatment for AML (with the exception of hydroxyurea), and were diagnosed with acute promyelocytic leukemia (APL-M3) or core-binding factor AML ((CBF-AML: t(8;21); inv(16); t(16;16)). All patients provided written informed consent. This study was conducted as per the Declaration of Helsinki after approval by ethics committee of each participating center.
Treatment Plan: Induction.
Consolidation. Patients who achieved a complete remission (CR) received 2 to 4 cycles of consolidation therapy with high dose cytarabine (HiDAC) 3 gm/m^2 IV every 12 hours on days 1, 3 and 5 upon full hematological recovery (absolute neutrophil count ≥[…] and platelets >[…]). HiDAC was permitted to be dose reduced to 1.5 gm/m^2 IV every 12 hours on days 1, 3 and 5 in those >60 years. Allogeneic stem cell transplantation was permitted after induction per standard of care but was recommended after at least 1 cycle of HiDAC consolidation in those who achieved CR.
Response Assessments. Response assessment was performed by a bone marrow aspirate and biopsy at the time of full hematologic recovery or by day 50 and day 60 of 1 versus 2 induction cycles, respectively. Response to therapy was assessed by standardized ELN Guidelines. In those who achieved CR and received consolidation therapy, a bone marrow aspirate and biopsy was performed after cycle 2 of HiDAC, after completion of consolidation therapy, and at any suspicion of relapse.

[3] = system: patients with newly diagnosed, previously untreated AML; assay: Minimal residual disease (MRD) analysis of bone marrow by flow cytometry in the Phase 1 study; assay type: in vivo, human
Experimental: Minimal Residual Disease (MRD) Analysis. MRD was assessed in bone marrow samples at the time of response by a uniform central assay (Hematologics, Inc.) in an exploratory cohort, as has been previously described. Samples were first incubated with antibodies for 20 minutes at room temperature. Red blood cells were then lysed at 37° C. using buffered NH4Cl for 5 minutes, followed by centrifugation at 300 g. Cells were subsequently washed with PBS supplemented with 2% FCS and resuspended in 1% paraformaldehyde. Samples were analyzed on a FACSCalibur™ flow cytometer (Becton Dickinson Biosciences). 200,000 events were analyzed for each sample. Data analysis was performed with WinList™ software (Verity Software House). Two independent reviewers viewed each sample to arrive at a consensus on the data.

[4] = system: patients with newly diagnosed, previously untreated AML; assay: Kaplan-Meier time-to-event analyses and clinical outcomes of the Phase 1 study; assay type: in vivo, human
Text: Statistical Analysis. […] Intra-patient dose escalation was not permitted. […] Database lock was on Apr. 30, 2020.

[5] = system: MDS blasts; assay: MCL-1 dependency assay of MDS blasts after azacitidine pre-treatment; assay type: cell-based, human; conditions: MCL-1 dependency cut-off of 40%
Experimental: CD13, CD33, CD34, CD45, CD3 and CD20 were used as markers to identify MDS blasts, and to perform MCL-1 dependency analyses. MDS blasts were positive for CD13, CD33 and CD34, dim for CD45 and negative for CD3 and CD20.
On day 1 of the MCL-1 dependency assay, 5×10^4-1×10^5 HS-5 feeder cells were plated into a 6-well plate, and allowed to attached overnight. HS-5 feeder cells improve viability of frozen MDS bone marrow mononuclear cells (BMMCs) after thawing. On day 2 of the assay, MDS BMMCs were thawed, and divided into three treatment groups corresponding to treatment with DMSO, treatment with 1 μM azacitidine or treatment with 2.5 μM azacitidine. On day 4, after a 48-hour treatment period, MCL-1 dependency of MDS blasts, lymphocytes and monocytes were separately assessed.

[6] = Response Evaluable Population (N = 31), alvocidib followed by 7+3

Q: For `CN1CC[C@H](c2c(O)cc(O)c3c(=O)cc(-c4ccccc4Cl)oc23)[C@H](O)C1` [alvocidib, 2-(2-chlorophenyl)-5,7-dihydroxy-8-[(3S,4R)-3-hydroxy-1-methylpiperidin-4-yl]chromen-4-one], which “MTD (maximum tolerated dose) of alvocidib” value ([1]; IV bolus/IV infusion on Days 1-3, in combination with 7+3) is on record?
A: (30/60 mg/m^2)

Q: What about the safety and feasibility ([1]; in vivo) of the same molecule?
A: safe, feasible

Q: And the “patients achieving CR after re-induction therapy” value ([2]; 3 patients re-induced with alvocidib and 5+2)?
A: None

Q: And the CR rate ([2]; AML with mutated chromatin, RNA-splicing genes, or both (9/10))?
A: 90%

Q: And the “patients achieving CR” value ([2]; MRD exploratory cohort of 12 patients at recommended phase 2 dose)?
A: 75%

Q: What about the “CR, n (%)” value [2, 6] of the same molecule?
A: 22 (71.0%) n (%)

Q: And the “CRi (%)” value [2, 6]?
A: 0%

Q: And the “Overall CR/CRi, n (%)” value [2, 6]?
A: 22 (71.0%) n (%)

Q: And the “Overall Response Rate (CR + CRi + PR)” value [2, 6]?
A: 24 (77.4%) n (%)

Q: What about the “PR, n (%)” value [2, 6] of the same molecule?
A: 2 (6.5%) n (%)

Q: What about the “Overall CR, n (%)” value ([2]; ELN-risk Adverse (n = 15)) of the same molecule?
A: 9 (60.0%) n (%)

Q: And the “Overall CR, n (%)” value ([2]; ELN-risk Favorable (n = 9))?
A: 8 (88.9%) n (%)

Q: What about the “Overall CR, n (%)” value ([2]; ELN-risk Intermediate (n = 7)) of the same molecule?
A: 5 (71.4%) n (%)

Q: What about the “Overall CR, n (%)” value ([2]; SWOG cytogenetics risk Favorable (n = 0)) of the same molecule?
A: 0 (0.0%) n (%)

Q: What about the “Overall CR, n (%)” value ([2]; SWOG cytogenetics risk Intermediate (n = 19)) of the same molecule?
A: 15 (78.9%) n (%)

Q: What about the “Overall CR, n (%)” value ([2]; SWOG cytogenetics risk Unfavorable (n = 12)) of the same molecule?
A: 7 (58.3%) n (%)

Q: And the “Overall CR, n (%)” value ([2]; SWOG cytogenetics risk Unknown (n = 0))?
A: 0 (0.0%) n (%)

Q: And the “Overall CR, n (%)” value ([2]; subgroup AML with MRC (n = 11))?
A: 6 (54.5%) n (%)

Q: And the “Overall CR, n (%)” value ([2]; subgroup Age <60 years (n = 21))?
A: 16 (76.2%) n (%)

Q: And the “Overall CR, n (%)” value ([2]; subgroup Age ≥60 years (n = 10))?
A: 6 (60.0%) n (%)

Q: What about the “Overall CR, n (%)” value ([2]; subgroup At MTD (n = 23)) of the same molecule?
A: 15 (65.2%) n (%)

Q: And the “Overall CR, n (%)” value ([2]; subgroup Secondary AML (n = 5))?
A: 3 (60.0%) n (%)

Q: And the “patients with no evidence of residual leukemia on day 14 assessment” value ([2]; all enrolled patients)?
A: 91%

Q: What about the CR rate ([2]; all enrolled patients (n=32)) of the same molecule?
A: 69%

Q: What about the “overall response rate (ORR: CR+partial remission (PR))” value ([2]; all enrolled patients (n=32)) of the same molecule?
A: 75%

Q: And the “Overall CR rate” value ([2]; all enrolled, ELN adverse-risk (9 of 16))?
A: 56%

Q: What about the “Overall CR rate” value ([2]; all enrolled, ELN favorable-risk (8 of 9)) of the same molecule?
A: 89%

Q: And the “Overall CR rate” value ([2]; all enrolled, ELN intermediate-risk (5 of 7))?
A: 71%

Q: And the CR rate ([2]; dose level 1 (3 of 3), all ELN favorable-risk)?
A: 100%

Q: And the CR rate ([2]; genomic signature specific for secondary AML (ASXL1, BCOR, EZH2, SF3B1, SRSF2, STAG2, U2AF1, or ZRSR2) (11/12))?
A: 92%

Q: And the “Overall CR rate” value ([2]; patients with ASXL1 mutations (5/6))?
A: 83%

Q: And the CR rate ([2]; patients with MCL-1 scores greater than 30% (10/12))?
A: 83%

Q: And the CR rate ([2]; patients with MCL-1 scores less than 30% (10/15))?
A: 67%

Q: What about the CR rate ([2]; patients with NPM1 mutations (8/10)) of the same molecule?
A: 80%

Q: And the “Overall CR rate” value ([2]; patients with RUNX1 mutations (4/5))?
A: 80%

Q: What about the “patients achieving CR” value ([2]; patients with a TP53 mutation (1/3)) of the same molecule?
A: 33%

Q: What about the “patients achieving CR” value ([2]; recommended phase 2 dose level (15/23)) of the same molecule?
A: 65%

Q: What about the CR rate ([2]; response-evaluable patients) of the same molecule?
A: 71%

Q: And the ORR ([2]; response-evaluable patients)?
A: 77%

Q: And the “MRD-negative among patients who achieved CR” value ([3]; 22 CR patients, standardized flow cytometry and/or institutional standard assessment)?
A: 50%

Q: And the “MRD-negative among patients who achieved CR” value ([3]; ELN adverse-risk disease (4/9))?
A: 44%

Q: And the “MRD-negative CR, overall” value ([3]; MRD exploratory cohort, 8 of 12 patients)?
A: 67%

Q: And the “MRD-negative among CR patients” value ([3]; MRD exploratory cohort, centralized flow cytometry (8/9))?
A: 89%

Q: And the “MRD-negative CR” value ([3]; MRD exploratory cohort, ELN adverse-risk patients (3 out of 4))?
A: 75%

Q: What about the “CR with evidence of MRD” value ([3]; MRD exploratory cohort, one patient with adverse-risk disease) of the same molecule?
A: 11%

Q: What about the “median duration of CR” value ([4]; 7 relapsed CR patients, range: 1.4-13.6 months) of the same molecule?
A: 8.6 months

Q: And the “Median EFS” value ([4]; 32 patients, 95% CI: 2.0, NA)?
A: 10.0 months

Q: What about the “Landmark 1-year OS” value ([4]; 32 patients, 95% CI: 41.9, 77.4%) of the same molecule?
A: 62.4%

Q: What about the “median OS” value ([4]; 32 patients, median follow-up 9.2 months) of the same molecule?
A: not reached

Q: And the “Landmark 2-year EFS” value ([4]; 95% CI: 15.4, 53.8%)?
A: 34.1%

Q: And the “Landmark 1-year EFS” value ([4]; 95% CI: 21.9, 59.1%)?
A: 40.9%

Q: And the “Landmark 1-year RFS” value ([4]; 95% CI: 31.7, 79.1%)?
A: 59.5%

Q: What about the relapsed to date ([4]; of the 22 CR patients) of the same molecule?
A: 32%

Q: What about the “remain in CR” value ([4]; patients who achieved CR without MRD) of the same molecule?
A: 82%

Q: And the relapsed ([4]; patients who achieved CR without evidence of MRD)?
A: 18%

Q: What about the “median RFS” value ([4]; time from CR/CRi up to relapse or death) of the same molecule?
A: not reached

Q: What does the source list for `Nc1ncn([C@@H]2O[C@H](CO)[C@@H](O)[C@H]2O)c(=O)n1` [azacitidine]?
A: patient samples with an increase in MCL-1 dependency ([5]; 1 μM or 2.5 μM azacitidine, 48-hour treatment): 10/12; effect on MCL-1 dependency status of blasts ([5]; patient sample MDS1060): rendered MCL-1-independent blasts MCL-1 dependent
